Legend:
[1] = test system: thoracic aorta isolated from a rat; assay: Magnus method: vasodilatory potency on aortic ring, relaxation of Norepinephrine 0.3 μM-induced contraction; conditions: L-citrulline 1000 μM, single addition; vasoconstriction induced by 0.3 μM Norepinephrine
[2] = sublingual treatment, concentration-dependent; non-patent document 3; cited from earlier work

SMILES | vascular relaxation rate (%) [1] | concentration of capsaicin solution producing a feeling of strong pain [2]
NC(=O)NCCC[C@H](N)C(=O)O [L-citrulline] | 15-20% | 
COc1cc(CNC(=O)CCCCC=CC(C)C)ccc1O [capsaicin, 8-methyl-N-vanillyl-6-nonenamide] |  | not less than 75 μM
